Marks after values point to notes of the source that are not given here.
Tests used:
[1] = known drugs, data from ref. [2]; cited from earlier work
[2] = known drugs, data from ref. [2]; cited from earlier work; remark: listed apart in the source
outbred mice [3] = test: acetic acid induced writhing test (visceral pain model); format: in vivo
Method: (§1) Analgesic activity of compounds of general formula 1 was studied in the model of visceral pain <<acetic acid induced writhing test>> and thermal irritation test <<hot plate>> in white outbred mice of body mass 20-22 g in groups of 8 animals each after single administration in 1÷20 mg/kg doses.
Acetic acid induced writhing test was performed by intraperitoneal administration of 0.1 ml of 0.75% acetic acid to an animal. Activity was assessed by the quantity of writhing movements during 3 min.
Tests were carried out in outbred male mice with body mass 22-25 g. Experimental groups were formed, with 8 animals in each. <<Acetic writhes>> were produced by intraperitoneal administration of 0.75% acetic acid, 0.1 ml per animal. Test compounds were administered once intragastrically an hour before acetic acid administration. Animals that received only acetic acid were used as control. Activity was assessed by the quantity of writhes during 3 min.

outbred mice [4] = test: hot plate test (thermal irritation); format: in vivo
Method: as §1
Hot plate test characterizes thermal stimulus. The animals were placed on a copper plate, T=54° C. The effect was assessed by the duration of stay of the animal on the hot plate before the first vocalization.
Tests were carried out in outbred male mice of body mass 22-25 g. Experimental groups were formed, with 8 animals in each. The animals were placed on a copper hot plate, T=54° C. The effects were assessed by the duration of animal stay on the hot plate before the first <>, in seconds.
Test compounds were administered once intragastrically an hour before the test. Control animals received the corresponding solvent.

outbred mice [5] = test: acetic acid induced writhing test (visceral pain model); format: in vivo; conditions: 0.5 mg/kg, intragastric
outbred mice [6] = test: hot plate test (thermal irritation); format: in vivo; conditions: 0.5 mg/kg, intragastric
white outbred mice = test: acute toxicity, single intragastric administration, Kerber method
[7] = 10 mg/kg, intragastric, (control − exp)/control · 100%
[8] = 10 mg/kg, once intragastrically 1 h before 0.75% acetic acid i.p., writhes during 3 min
[9] = 10 mg/kg, once intragastrically 1 h before test, plate 54° C, time to first vocalization
[10] = 10 mg/kg, intragastric, (exp − control)/control · 100%
[11] = 1 mg/kg dose, compared with sodium diclofenac 10 mg/kg

Structure (SMILES): Cc1c(N(C)CS(=O)(=O)O)c(=O)n(-c2ccccc2)n1C [Metamizole]
- ED50 in acetic acid induced writhing test [1]: 55 mg/kg
- LD50 (acute toxicity) [2]: 3300 mg/kg

Structure (SMILES): Cc1ccsc1C1CC(C)(O)C2CCC(C)CC2O1 (stereo not shown) [Compound 1b, 4,7-dimethyl-2-(3-methylthiophene-2-yl)octahydro-2H-chromene-4-ol]
- Pain reduction, % (outbred mice [3]; [7]): 36*** %
- Writhes, quantity (Agent) (outbred mice [3]; [8]): 7.0 ± 0.6
- Hot plate, sec. (Agent) (outbred mice [4]; [9]): 12.8 ± 1.7 s

Structure (SMILES): Cc1ccc(C2CC(C)(O)C3CCC(C)CC3O2)s1 (stereo not shown) [Compound 1c, 4,7-dimethyl-2-(5-methylthiophene-2-yl)octahydro-2H-chromene-4-ol]
- Pain reduction, % (outbred mice [3]; [7]): 39*** %
- Writhes, quantity (Agent) (outbred mice [3]; [8]): 6.6 ± 0.5
- Hot plate, sec. (Agent) (outbred mice [4]; [9]): 17.4 ± 2.4 s

Structure (SMILES): CC1CCC2C(C1)OC(c1ccc(Br)s1)CC2(C)O (stereo not shown) [Compound 1e, 4,7-dimethyl-2-(5-bromothiophene-2-yl)octahydro-2H-chromene-4-ol]
- Pain reduction, % (outbred mice [3]; [7]): 34* %
- Writhes, quantity (Agent) (outbred mice [3]; [8]): 6.3 ± 1.2
- Protection, % (outbred mice [4]; [10]): 18%
- Hot plate, sec. (Agent) (outbred mice [4]; [9]): 11.6 ± 1.0 s

Structure (SMILES): CC1CCC2C(C1)OC(c1cccs1)CC2(C)O (stereo not shown) [Compound 1a, 4,7-dimethyl-2-(thiophene-2-yl)octahydro-2H-chromene-4-ol]
- analgesic activity in acetic acid induced writhing test (in words) (outbred mice [3]; [11]): potent analgesic activity
- Pain reduction, % (outbred mice [3]; 1 mg/kg, intragastric): 71%
- Writhes, quantity (Agent) (outbred mice [3]; 1 mg/kg, intragastric): 2.4 ± 0.8
- Pain reduction, % (outbred mice [3]; 5 mg/kg, intragastric): 42%
- Writhes, quantity (Agent) (outbred mice [3]; 5 mg/kg, intragastric): 4.9 ± 1.0
- analgesic activity in acetic acid induced writhing test (in words) (outbred mice [3]; 10 mg/kg dose): more effective than sodium diclofenac
- Pain reduction, % (outbred mice [3]; [7]): 55%
- Writhes, quantity (Agent) (outbred mice [3]; [8]): 4.3 ± 1.1
- Pain reduction, % (outbred mice [3]; 20 mg/kg, intragastric): 25%
- Writhes, quantity (Agent) (outbred mice [3]; 20 mg/kg, intragastric): 8.3 ± 0.5
- analgesic activity in hot plate test (in words) (outbred mice [4]; [11]): potent analgesic activity
- Hot plate, sec. (Agent) (outbred mice [4]; 1 mg/kg, intragastric): 16.5 ± 1.9 s
- Protection, % (outbred mice [4]; 1 mg/kg, intragastric): 59%
- Hot plate, sec. (Agent) (outbred mice [4]; 5 mg/kg, intragastric): 16.3 ± 1.6 s
- Protection, % (outbred mice [4]; 5 mg/kg, intragastric): 57%
- analgesic activity in hot plate test (in words) (outbred mice [4]; 10 mg/kg dose): Reliable analgesic activity
- Protection, % (outbred mice [4]; [10]): 34%
- Hot plate, sec. (Agent) (outbred mice [4]; [9]): 13.1 ± 1.2 s
- Hot plate, sec. (Agent) (outbred mice [4]; 20 mg/kg, intragastric): 16.0 ± 2.6 s
- Protection, % (outbred mice [4]; 20 mg/kg, intragastric): 50%
- Pain reduction, % (outbred mice [5]): 27%
- Writhes, quantity (Agent) (outbred mice [5]): 7.4 ± 1.3
- Hot plate, sec. (Agent) (outbred mice [6]): 20.3 ± 2.2 s
- Protection, % (outbred mice [6]): 28%
- acute toxicity classification (in words) (white outbred mice): moderately toxic

Structure (SMILES): CC1CCC2C(C1)OC(c1cc(Br)cs1)CC2(C)O (stereo not shown) [Compound 1d, 4,7-dimethyl-2-(4-bromothiophene-2-yl)octahydro-2H-chromene-4-ol]
- analgesic activity in acetic acid induced writhing test (in words) (outbred mice [3]; 10 mg/kg dose): more effective than sodium diclofenac
- Pain reduction, % (outbred mice [3]; [7]): 63** %
- Writhes, quantity (Agent) (outbred mice [3]; [8]): 3.6 ± 1.5
- Protection, % (outbred mice [4]; [10]): 39%
- Hot plate, sec. (Agent) (outbred mice [4]; [9]): 13.6 ± 1.7 s

Structure (SMILES): CC(=O)Oc1ccccc1C(=O)O [Acetylsalicylic acid]
- ED50 in acetic acid induced writhing test [1]: 155 mg/kg

Structure (SMILES): O=C(O)Cc1ccccc1Nc1c(Cl)cccc1Cl [Sodium diclofenac, reference compound]
- Pain reduction, % (outbred mice [3]; [7]): 50*** %
- Writhes, quantity (Agent) (outbred mice [3]; [8]): 5.0 ± 1.1
- Protection, % (outbred mice [4]; [10]): 62** %
- Hot plate, sec. (Agent) (outbred mice [4]; [9]): 15.6 ± 2.4 s
- ED50 in acetic acid induced writhing test [1]: 5 mg/kg

Structure (SMILES): CC1CCC2C(C1)OC(c1ccc([N+](=O)[O-])s1)CC2(C)O (stereo not shown) [Compound 1f, 4,7-dimethyl-2-(5-nitrothiophene-2-yl)octahydro-2H-chromene-4-ol]
- Pain reduction, % (outbred mice [3]; [7]): 32* %
- Writhes, quantity (Agent) (outbred mice [3]; [8]): 7.5 ± 1.2
- Protection, % (outbred mice [4]; [10]): 20%
- Hot plate, sec. (Agent) (outbred mice [4]; [9]): 14.5 ± 1.6 s

— US9999613B2, “2H-chromene derivatives as analgesic agents” (OBSHESTVO S OGRANICHENNOI OTVETSVENNOSTJU “LEOFORS”, priority 2014, dated 2018)
